Here are results for three compounds from EP1043331A1, “BONE-RESORPTIVE CYTOKINE INHIBITOR CONTAINING DIENOGEST AS THE ACTIVE INGREDIENT” (MOCHIDA PHARMACEUTICAL CO., LTD., priority 1997, dated 1999).

Holding throughout (assay type): cell-based, mouse
The subject of one test is IL-6. Briefly: IL-6 release from murine osteoblast (culture supernatant cytokine assay). As to conditions: 24 hours culture. The protocol: Under anesthesia with pentobarbital sodium (25 mg/kg, intraperitoneal administration), postcava was cut to bleed and kill the animal to death. Then, bilateral femoral bones were resected. This bone was cut with a pair of bone scissors, to remove the bone marrow with a micro-loop. The inner face of the bone was rubbed off with a sharp blade. The resulting matter was agitated in a 10 % collagenase solution (Nitta gelatin) at 37 °C for 20 minutes, and to the resulting mixture was added a culture medium (an MEM culture medium supplemented with 10 % charcoal-treated bovine fetal serum; manufactured by Nissui Pharmaceutical, Co. Ltd.) prior to centrifugation (300×g, 5 minutes and 20 °C). The resulting cells were dispersed in a fresh culture medium and then inoculated on a plastic culture dish (diameter of 35 mm, Primaria (Falcon)). […] Osteoblast was identified by using alkali phosphatase staining as an osteoblast marker. For recovering osteoblast from an animal after ovariectomy, ovariectomy was carried out at age 11 weeks, and the animal was fed for the following 4 weeks, prior to the same treatment.
Dienogest as a test substance was dissolved and diluted in dimethylsulfoxide (DMSO, manufactured by Wako Pure Chemical Industries, Ltd.) for use. As a control substance, furthermore, MPA and danazol were used after they were dissolved and diluted in DMSO. DMSO was used as a solvent control.
The final concentrations of the drug were 10^-11, 10^-10 and 10^-9 M. For experiments, furthermore, three dishes per each group were used.
Using SMRART ™ (Pharmacia Biotech, Uppsala, Sweden), the supernatant was concentrated by about 10 fold, after the termination of culturing. The level of cytokine in the sample was assayed by using assay kits of murine IL-1β, IL-6 and TNF-α (Cytoscreen™, BioSource International, Camarillo, Calif. CA, USA) and europium-labeled streptoavidin (Pharmacia Biotech).

A further test has as its system TNF-α. Briefly: TNF-α release from murine osteoblast (culture supernatant cytokine assay). As to conditions: 24 hours culture.
The subject of a further test is murine osteoclast. Briefly: Frequency of occurrence of apoptosis in murine osteoclast. As to conditions: 7 days, one hundred cells with two or more nuclei observed, control 4.0. The protocol: By a method according to the report by Takahashi et al. (Endocrinology, Vol.122, pp.1373-1382, 1988), osteoclast was prepared. More specifically, a female SLC:ICR mouse of age 7 weeks was bled and killed to death, under anesthesia with pentobarbital sodium (25 mg/kg, intraperitoneal administration), and from the mouse; her femoral bone was resected. Both the ends were cut, to rinse off the […] into α-MEM (Gibco) (1 ml). […] 0.5 ml of the cell suspension was inoculated in a 24-well microtiter plate. To the wells was added 100 ng/ml parathyroid hormone (Sigma Chemical Co.) for culturing in 5 % CO2/95 % air at 37 °C for 2 days. […] Herein, three plates were used per one concentration of each drug. […] After rinsing in PBS, the apoptosis cells were detected by using an ApopTagPlus Insitu Apoptosis Detection kit peroxidase (Oncor, Gaithersburg, MD, USA) and a TSA-direct kit (GreenFISH, NEN Life Science Products, Boston, MA). Simultaneously, the smear sample was stained with a 20 µg/ml propidium iodide (Sigma Chemical Co.) solution containing 50 U/ml RNase, at room temperature for 15 minutes, to stain the nucleus. One hundred cells with two or more nuclei were observed under a cofocal laser scanning type fluorescence microscope (MRC-1000, BioRad), to determine the number of apoptosis-positive cells developed: The results are shown in Table 5.

The next test concerns PKA. Briefly: PKA activity in murine osteoblast (time-resolved fluorometry). As to conditions: Fig.2. The procedure:
According to the method by Johansen, et al. (Journal Bone and Mineral Research, Vol.7, pp.501-509, 1992), osteoblast was collected from the femoral bones of a female SLC : ICR mouse of age 15 weeks. Under anesthesia with pentobarbital sodium (25 mg/kg, intraperitoneal administration), postcava was cut to bleed and kill the animal to death. Then, bilateral femoral bones were resected. This bone was cut with a pair of bone scissors, to remove the bone marrow with a micro-loop. The inner face of the bone was rubbed off with a sharp blade. The resulting matter was agitated in a 10 % collagenase solution (Nitta gelatin) at 37 °C for 20 minutes, and to the resulting mixture was added a culture medium (an MEM culture medium supplemented with 10 % charcoal-treated bovine fetal serum; manufactured by Nissui Pharmaceutical, Co. Ltd.) prior to centrifugation (300×g, 5 minutes and 20 °C). The resulting cells were dispersed in a fresh culture medium and then inoculated on a plastic culture dish (diameter of 35 mm, Primaria (Falcon)). […] Osteoblast was identified by using alkali phosphatase staining as an osteoblast marker. For recovering osteoblast from an animal after ovariectomy, ovariectomy was carried out at age 11 weeks, and the animal was fed for the following 4 weeks, prior to the same treatment. 1×10^4 cells/ml osteoblast suspension (100 µl), a culture medium (890 µl) and a drug solution (10 µl) were added into each well of a plastic 24-well culture plate (Falcon), for culturing at 37 °C in 5 % CO2/95 % air for 24 hours, and then, the resulting culture was centrifuged (300 ×g, 5 minutes, 20°C) to recover the supernatant, which was defined as a cytokine assay sample. […] For experiments, furthermore, three dishes per each group were used. The osteoblast recovered by the method of the Experimental Example 1 was used. […] An enhancer reagent (100 µl) was added, for agitation at room temperature for 5 minutes, to determine the fluorescence intensity with a time-resolved fluorometer. Based on a preliminarily prepared standard curve, PKA activity was calculated.

Setting [1] is: osteoblast of non-treated mouse, 10^-9 M, control 39.9.
The mark [2] stands for this setting: osteoblast of non-treated mouse, 10^-10 M, control 39.9.
The mark [3] stands for this setting: osteoblast of non-treated mouse, 10^-11 M, control 39.9.
[4] abbreviates: osteoblast of ovariectomized mouse, 10^-9 M, control 109.0.
The mark [5] stands for this setting: osteoblast of ovariectomized mouse, 10^-10 M, control 109.0.
Setting [6] is: osteoblast of ovariectomized mouse, 10^-11 M, control 109.0.
Setting [7] is: osteoblast of non-treated mouse, 10^-9 M, control 23.5.
Where [8] appears, read: osteoblast of non-treated mouse, 10^-10 M, control 23.5.
[9] abbreviates: osteoblast of non-treated mouse, 10^-11 M, control 23.5.
Where [10] appears, read: osteoblast of ovariectomized mouse, 10^-9 M, control 45.0.
Where [11] appears, read: osteoblast of ovariectomized mouse, 10^-10 M, control 45.0.
Setting [12] is: osteoblast of ovariectomized mouse, 10^-11 M, control 45.0.
Where [13] appears, read: doses of 10^-11, 10^-10 and 10^-9 M.

Structures are written as SMILES. Marks after values point to notes of the source that are not given here.

Method for TNF-α: According to the method by Johansen, et al. (Journal Bone and Mineral Research, Vol.7, pp.501-509, 1992), osteoblast was collected from the femoral bones of a female SLC : ICR mouse of age 15 weeks. Under anesthesia with pentobarbital sodium (25 mg/kg, intraperitoneal administration), postcava was cut to bleed and kill the animal to death. Then, bilateral femoral bones were resected. This bone was cut with a pair of bone scissors, to remove the bone marrow with a micro-loop. The inner face of the bone was rubbed off with a sharp blade. The resulting matter was agitated in a 10 % collagenase solution (Nitta gelatin) at 37 °C for 20 minutes, and to the resulting mixture was added a culture medium (an MEM culture medium supplemented with 10 % charcoal-treated bovine fetal serum; manufactured by Nissui Pharmaceutical, Co. Ltd.) prior to centrifugation (300×g, 5 minutes and 20 °C). The resulting cells were dispersed in a fresh culture medium and then inoculated on a plastic culture dish (diameter of 35 mm, Primaria (Falcon)). At 37 °C in 5 % CO2/95% air, the cells were cultured for 24 hours, and the attached cells were recovered in a 0.25 % trypsin solution to prepare a cell suspension of 1×10^4 cells/ml. Osteoblast was identified by using alkali phosphatase staining as an osteoblast marker. For recovering osteoblast from an animal after ovariectomy, ovariectomy was carried out at age 11 weeks, and the animal was fed for the following 4 weeks, prior to the same treatment.
1×10^4 cells/ml osteoblast suspension (100 µl), a culture medium (890 µl) and a drug solution (10 µl) were added into each well of a plastic 24-well culture plate (Falcon), for culturing at 37 °C in 5 % CO2/95 % air for 24 hours, and then, the resulting culture was centrifuged (300 ×g, 5 minutes, 20°C) to recover the supernatant, which was defined as a cytokine assay sample. The final concentrations of the drug were 10^-11, 10^-10 and 10^-9 M. For experiments, furthermore, three dishes per each group were used.

As to `C#C[C@]1(O)CC[C@H]2[C@@H]3CCC4=Cc5oncc5C[C@]4(C)[C@H]3CC[C@@]21C` [Danazol, danazol], the IL-6 in the test with IL-6 (setting [1]) is 42.0** pg/ml; in the test with IL-6 (setting [2]) it was 37.7 pg/mL; with IL-6 (setting [3]), 38.9 pg/mL; in the test with IL-6 (setting [4]) it was 124.0** pg/ml; in the test with IL-6 (setting [5]) it was 109.4 pg/mL; in the test on IL-6 (setting [6]) it was 111.3 pg/mL. For the same compound, the TNF-α was 26.1** pg/ml in the test with TNF-α (setting [7]); 24.3 pg/mL in the test on TNF-α (setting [8]); 24.0 pg/mL with TNF-α (setting [9]); 47.5** pg/ml in the test with TNF-α (setting [10]); 45.3 pg/mL with TNF-α (setting [11]); 45.3 pg/mL in the test with TNF-α (setting [12]). The “frequency of apoptosis occurrence in murine osteoclast (number of apoptosis-positive cells)” value (“frequency of apoptosis occurrence” for short) with murine osteoclast (10^-9 M) is 3.3; with murine osteoclast (10^-10 M), 3.7; in the test with murine osteoclast (10^-11 M), 4.0. For the same compound, the “PKA activity in the murine osteoblast” value in the test on PKA (setting [13]) was “did not affect”.

Regarding `C[C@]12CCC3=C4CCC(=O)C=C4CC[C@H]3[C@@H]1CC[C@@]2(O)CC#N` [Dienogest, 17 α-cyanomethyl-17β-hydroxy-estra-4,9(10)-dien-3-one], the IL-6 in the test on IL-6 (setting [1]) is 32.3** pg/ml; in the test with IL-6 (setting [2]), 35.5 pg/mL; in the test on IL-6 (setting [3]) it was 39.3 pg/mL; in the test on IL-6 (setting [4]), 40.1** pg/ml; with IL-6 (setting [5]), 47.7** pg/ml; with IL-6 (setting [6]) it was 94.2 pg/mL. Moreover, the TNF-α was 14.8** pg/ml with TNF-α (setting [7]); 24.4 pg/mL in the test on TNF-α (setting [8]); 24.7 pg/mL in the test with TNF-α (setting [9]); 22.3** pg/ml in the test on TNF-α (setting [10]); 29.8** pg/ml in the test on TNF-α (setting [11]); 44.4 pg/mL in the test with TNF-α (setting [12]). The “frequency of apoptosis occurrence” value in the test on murine osteoclast (10^-9 M) is given as 16.3**; with murine osteoclast (10^-10 M), 5.0; in the test with murine osteoclast (10^-11 M), 3.7. For the same compound, the “PKA activity in the murine osteoblast” value with PKA (at a concentration of 10^-9 M or more) is “significantly enhanced”.

Turning to `CC(=O)O[C@]1(C(C)=O)CC[C@H]2[C@@H]3C[C@H](C)C4=CC(=O)CC[C@]4(C)[C@H]3CC[C@@]21C` [MPA, medroxyprogesterone acetate], the IL-6 with IL-6 (setting [1]) was 45.1** pg/ml; with IL-6 (setting [2]), 37.6 pg/mL; with IL-6 (setting [3]), 38.7 pg/mL; in the test on IL-6 (setting [4]) it was 122.5** pg/ml; in the test on IL-6 (setting [5]), 109.3 pg/mL; in the test on IL-6 (setting [6]) it was 111.4 pg/mL. Further, the TNF-α was 31.4** pg/ml with TNF-α (setting [7]); 25.3 pg/mL in the test with TNF-α (setting [8]); 25.5 pg/mL in the test with TNF-α (setting [9]); 47.6* pg/ml in the test with TNF-α (setting [10]); 46.1 pg/mL in the test with TNF-α (setting [11]); 44.6 pg/mL with TNF-α (setting [12]). The “frequency of apoptosis occurrence” value was 5.0 in the test with murine osteoclast (10^-9 M), 3.7 in the test on murine osteoclast (10^-10 M) and 4.0 in the test on murine osteoclast (10^-11 M). Besides, in the test with PKA (setting [13]), the “PKA activity in the murine osteoblast” value was “did not affect”.
